One experiment deals with T1, mTOR kinase (Homo sapiens, UniProt P42345).
T1 construct: purchased Millipore, USA
In words: mTOR kinase TR-FRET assay. The class given is biochemical. Particulars: read-out: mTO R. The method, boiled down: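 Compounds preincubated 60 min with mTOR (5 ng) in HEPES pH 7.5, EGTA, MnCl2; ULight-p70 S6K Thr389 peptide (50 nM) and ATP (20 μM) then added, 60 min at room temperature. EDTA-stopped, Eu-anti-phospho antibody detection by TR-FRET (665/615 nm); IC50 from variable-slope sigmoidal fit.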

Experiment [1] has as its target T2, PI3Kα (wild-type), P110/P85α (Homo sapiens, UniProt P42336).
T2 construct: made in house; host or cells: SF9 insect cells
In words: PI3 Kinase TR-FRET assay, PI3Kα (wild-type). The class given is biochemical. The essentials:
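Sf9-expressed His-purified P110/P85α (5 ng) preincubated 60 min RT with compound and PIP2 in buffer with 40 mM MgCl2, 5 mM DTT; reaction started with ATP (PIP2 and ATP both 10 μM), 30 min RT. PIP3 detected by TR-FRET displacement, 665/615 nm ratio; IC50 from dose-response curves.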
On the technique in general: TR-FRET usually uses a lanthanide donor and a delayed reading to cut background.

The test system of a further experiment is PC3 cells. Nature of the experiment: XTT assay for cell viability, PC3 cells. The class given is cell-based, human. The note with it: Homo sapiens, PC-3, cell viability. The essentials:
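PC3 cells seeded at 1000 cells/well, grown 24 h, then exposed to serial dilutions of compound for 96 h. Viability read by XTT dye at 37° C, absorbance 465 nm. EC50 from sigmoidal dose-response fit.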

Experiment [2] deals with pS6RP(S235/236), PC3 cells. In words: In-cell Western assay, pS6RP(S235/236) in PC3 cells. In kind it is cell-based, human. The note with it: Homo sapiens, PC-3, In-cell Western. The essentials:
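Overnight-seeded PC3 cells were treated 2 h with serially diluted compound, then fixed and immunostained with phospho-specific primary antibodies and Eu-labelled secondary. Time-resolved Eu signal read at 615 nm (ex 340 nm), normalised by Hoechst 33258 staining (ex 355/em 460 nm); IC50 from sigmoidal dose-response fit.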

T2 sequence (P42336 whole entry): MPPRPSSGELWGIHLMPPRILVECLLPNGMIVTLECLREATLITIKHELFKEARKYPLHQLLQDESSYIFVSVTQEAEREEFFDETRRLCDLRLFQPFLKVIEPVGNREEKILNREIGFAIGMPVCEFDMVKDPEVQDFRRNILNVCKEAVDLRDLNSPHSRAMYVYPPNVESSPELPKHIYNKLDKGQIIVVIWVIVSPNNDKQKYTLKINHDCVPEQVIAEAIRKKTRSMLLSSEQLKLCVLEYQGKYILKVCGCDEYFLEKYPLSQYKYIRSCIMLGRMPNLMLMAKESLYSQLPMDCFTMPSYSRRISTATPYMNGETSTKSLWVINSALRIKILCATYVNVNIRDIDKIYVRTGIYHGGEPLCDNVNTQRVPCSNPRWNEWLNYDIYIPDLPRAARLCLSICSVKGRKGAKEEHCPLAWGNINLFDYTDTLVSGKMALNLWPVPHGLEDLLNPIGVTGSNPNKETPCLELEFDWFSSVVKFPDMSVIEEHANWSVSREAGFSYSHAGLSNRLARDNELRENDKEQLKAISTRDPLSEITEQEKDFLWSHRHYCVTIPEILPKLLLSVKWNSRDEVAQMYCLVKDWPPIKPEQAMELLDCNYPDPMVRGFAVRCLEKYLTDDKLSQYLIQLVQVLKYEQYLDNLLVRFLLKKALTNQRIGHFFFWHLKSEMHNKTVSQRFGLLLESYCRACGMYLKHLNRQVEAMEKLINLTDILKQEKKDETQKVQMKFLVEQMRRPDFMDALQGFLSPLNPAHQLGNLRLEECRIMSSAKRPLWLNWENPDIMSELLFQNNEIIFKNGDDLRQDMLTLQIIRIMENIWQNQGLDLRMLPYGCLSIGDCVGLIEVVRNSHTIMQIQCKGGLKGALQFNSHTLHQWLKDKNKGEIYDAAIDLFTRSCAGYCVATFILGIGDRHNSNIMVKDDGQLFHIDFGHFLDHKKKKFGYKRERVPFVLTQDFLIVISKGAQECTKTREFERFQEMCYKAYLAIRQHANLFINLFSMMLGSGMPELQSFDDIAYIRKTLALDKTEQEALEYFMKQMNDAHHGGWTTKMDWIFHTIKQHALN
T2 sequence (P27986 whole entry partner): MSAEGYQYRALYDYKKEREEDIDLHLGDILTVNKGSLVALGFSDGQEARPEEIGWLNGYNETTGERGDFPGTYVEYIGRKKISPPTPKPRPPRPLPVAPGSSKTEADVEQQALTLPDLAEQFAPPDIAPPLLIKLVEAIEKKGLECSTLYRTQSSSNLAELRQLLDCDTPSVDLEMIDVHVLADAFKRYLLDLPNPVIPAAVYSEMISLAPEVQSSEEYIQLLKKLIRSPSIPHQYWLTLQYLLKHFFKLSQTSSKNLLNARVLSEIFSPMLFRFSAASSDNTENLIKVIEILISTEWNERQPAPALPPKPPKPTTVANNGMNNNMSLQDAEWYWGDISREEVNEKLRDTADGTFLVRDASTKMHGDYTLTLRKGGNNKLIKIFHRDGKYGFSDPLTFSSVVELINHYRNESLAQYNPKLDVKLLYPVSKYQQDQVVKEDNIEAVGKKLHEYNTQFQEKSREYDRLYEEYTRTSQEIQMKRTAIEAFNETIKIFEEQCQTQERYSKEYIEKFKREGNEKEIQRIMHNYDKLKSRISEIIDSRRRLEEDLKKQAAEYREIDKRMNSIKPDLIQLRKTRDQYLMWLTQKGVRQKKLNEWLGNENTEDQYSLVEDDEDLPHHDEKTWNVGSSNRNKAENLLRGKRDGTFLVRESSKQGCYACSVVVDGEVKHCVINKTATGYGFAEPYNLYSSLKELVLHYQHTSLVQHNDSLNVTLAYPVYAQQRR

`CN(C)[C@@H]1CCN(C(=O)c2ccc(NC(=O)Nc3ccc(-c4nc(N5CCOCC5)c5ncc(-c6cnn(C)c6)cc5n4)cc3)cc2)C1` [Example 184, (R)-1-(4-(3-(dimethylamino)pyrrolidine-1-carbonyl)phenyl)-3-(4-(7-(1-methyl-1H-pyrazol-4-yl)-4-morpholino-pyrido[3,2-d]pyrimidin-2-yl)phenyl)urea]: the IC50 at mTOR kinase was below 50 nM; in experiment [1], below 50 nM; in the experiment on PC3 cells it was 201 to 10000 nM; in experiment [2], 201 to 10000 nM.

Turning to `CN(C)C1CCN(C(=O)c2ccc(NC(=O)Nc3ccc(-c4nc(N5CCOCC5)c5ncc(-c6cnn(C)c6)cc5n4)cc3)cc2)CC1` [Example 186, 1-(4-(4-(dimethylamino)piperidine-1-carbonyl)phenyl)-3-(4-(7-(1-methyl-1H-pyrazol-4-yl)-4-morpholino-pyrido[3,2-d]pyrimidin-2-yl)phenyl)urea], the IC50 was below 50 nM on mTOR kinase, below 50 nM in experiment [1], 201 to 10000 nM in the experiment with PC3 cells and 201 to 10000 nM in experiment [2].

As to `CN(C)[C@@H]1CCN(C(=O)c2ccc(NC(=O)Nc3ccc(-c4nc(N5CCOCC5)c5ccc(-c6cncnc6)cc5n4)cc3)cc2)C1` [Example 187, (R)-1-(4-(3-(dimethylamino)pyrrolidine-1-carbonyl)phenyl)-3-(4-(4-morpholino-7-(pyrimidin-5-yl)quinazolin-2-yl)phenyl)urea], the IC50 is below 50 nM at mTOR kinase, below 50 nM in experiment [1], 201 to 10000 nM in the experiment on PC3 cells and 201 to 10000 nM in experiment [2].

Take `O=C(Nc1ccc(C(=O)N2CCC(O)C2)cc1)Nc1ccc(-c2nc(N3CCOCC3)c3ccc(-c4cncnc4)cc3n2)cc1` (stereo not shown) [Example 189, 1-(4-(3-hydroxypyrrolidine-1-carbonyl)phenyl)-3-(4-(4-morpholino-7-(pyrimidin-5-yl)quinazolin-2-yl)phenyl)urea]: the IC50 was below 50 nM at mTOR kinase, 201 to 10000 nM in experiment [1], 201 to 10000 nM in the experiment on PC3 cells and 201 to 10000 nM in experiment [2].

As for `CN(C)Cc1ccc(-c2ccc3c(N4CCOCC4)nc(-c4ccc(NC(=O)Nc5ccc(C(=O)N(C)C)cc5)cc4)nc3c2)o1` [Example 190, 4-(3-(4-(7-(5-((dimethylamino)methyl)furan-2-yl)-4-morpholino-quinazolin-2-yl)phenyl)ureido)-N,N-dimethyl-benzamide], the IC50 is below 50 nM at mTOR kinase, 50 to 200 nM in experiment [1], 201 to 10000 nM in the experiment on PC3 cells and 201 to 10000 nM in experiment [2].

Regarding `Cc1ccc(-c2ccc3c(N4CCOCC4)nc(-c4ccc(NC(=O)Nc5ccc(C(=O)N6CCC(N(C)C)CC6)cc5)cc4)nc3c2)o1` [Example 191, 1-(4-(4-(dimethylamino)piperidine-1-carbonyl)phenyl)-3-(4-(7-(5-methylfuran-2-yl)-4-morpholino-quinazolin-2-yl)phenyl)urea], the IC50 at mTOR kinase lay within 50 to 200 nM; in experiment [1], 201 to 10000 nM; in the experiment on PC3 cells, 201 to 10000 nM; in experiment [2] it was 201 to 10000 nM.

`Cc1ccncc1-c1ccc2c(N3CCOCC3)nc(-c3ccc(NC(=O)Nc4ccc(C(=O)N5CCC(N(C)C)CC5)cc4)cc3)nc2c1` [Example 193, 1-(4-(4-(dimethylamino)piperidine-1-carbonyl)phenyl)-3-(4-(7-(4-methylpyridin-3-yl)-4-morpholino-quinazolin-2-yl)phenyl)urea]: the IC50 is below 50 nM at mTOR kinase, below 50 nM in experiment [1], 201 to 10000 nM in the experiment with PC3 cells and 201 to 10000 nM in experiment [2].

Consider `N[C@H]1CCN(C(=O)c2ccc(NC(=O)Nc3ccc(-c4nc(N5CCOCC5)c5ccc(-c6cncnc6)cc5n4)cc3)cc2)C1` [Example 194, (S)-1-(4-(3-aminopyrrolidine-1-carbonyl)phenyl)-3-(4-(4-morpholino-7-(pyrimidin-5-yl)quinazolin-2-yl)phenyl)urea], for which the IC50 on mTOR kinase was below 50 nM; in experiment [1], below 50 nM; in the experiment on PC3 cells, 201 to 10000 nM; in experiment [2], 201 to 10000 nM.

Regarding `N[C@@H]1CCN(C(=O)c2ccc(NC(=O)Nc3ccc(-c4nc(N5CCOCC5)c5ccc(-c6cncnc6)cc5n4)cc3)cc2)C1` [Example 197, (R)-1-(4-(3-aminopyrrolidine-1-carbonyl)phenyl)-3-(4-(4-morpholino-7-(pyrimidin-5-yl)quinazolin-2-yl)phenyl)urea], the IC50 at mTOR kinase was below 50 nM; in experiment [1] it was below 50 nM; in the experiment with PC3 cells, 201 to 10000 nM; in experiment [2], 201 to 10000 nM.

Consider `Cc1ccc(-c2ccc3c(N4CCOCC4)nc(-c4ccc(NC(=O)Nc5ccc(C(=O)NCCN(C)C)cc5)cc4)nc3c2)o1` [Example 201, N-(2-(dimethylamino)ethyl)-4-(3-(4-(7-(5-methylfuran-2-yl)-4-morpholino-quinazolin-2-yl)phenyl)ureido)-benzamide], for which the IC50 on mTOR kinase was below 50 nM; in experiment [1], 50 to 200 nM; in the experiment with PC3 cells it was 501 to 5000 nM; in experiment [2], 501 to 5000 nM.

Turning to `Cn1cc(-c2cnc3c(N4CCOCC4)nc(-c4ccc(NC(=O)Nc5ccc(C(N)=O)cc5)cc4)nc3c2)cn1` [Example 202, 4-(3-(4-(7-(1-methyl-1H-pyrazol-4-yl)-4-morpholino-pyrido[3,2-d]pyrimidin-2-yl)phenyl)ureido)-benzamide], the IC50 on mTOR kinase was below 50 nM; in experiment [1], below 50 nM; with PC3 cells, 201 to 10000 nM; in experiment [2] it was 201 to 10000 nM.

Turning to `CN(C)C(=O)c1ccc(NC(=O)Nc2ccc(-c3nc(N4CCOCC4)c4ccc(-c5ccc(CO)o5)cc4n3)cc2F)cc1` [Example 203, 4-(3-(2-fluoro-4-(7-(5-(hydroxymethyl)furan-2-yl)-4-morpholino-quinazolin-2-yl)phenyl)ureido)-N,N-dimethyl-benzamide], the IC50 was below 50 nM at mTOR kinase, below 50 nM in experiment [1], 201 to 10000 nM in the experiment with PC3 cells and 201 to 10000 nM in experiment [2].

For `Cc1ccc(-c2ccc3c(N4CCOCC4)nc(-c4ccc(NC(=O)Nc5ccc(C(=O)N6CCC(O)C6)cc5)cc4)nc3c2)o1` (stereo not shown) [Example 204, 1-(4-(3-hydroxypyrrolidine-1-carbonyl)phenyl)-3-(4-(7-(5-methylfuran-2-yl)-4-morpholino-quinazolin-2-yl)phenyl)urea], the IC50 at mTOR kinase is below 50 nM; in experiment [1], below 50 nM; in the experiment with PC3 cells, below 100 nM; in experiment [2], below 100 nM.

In the case of `CN(C)[C@@H]1CCN(C(=O)c2ccc(NC(=O)Nc3ccc(-c4nc(N5CCOCC5)c5ncc(-c6cnn(C)c6)cc5n4)cc3F)cc2)C1` [Example 205, (R)-1-(4-(3-(dimethylamino)pyrrolidine-1-carbonyl)phenyl)-3-(2-fluoro-4-(7-(1-methyl-1H-pyrazol-4-yl)-4-morpholino-pyrido[3,2-d]pyrimidin-2-yl)phenyl)urea], the IC50 on mTOR kinase is below 50 nM; in experiment [1], below 50 nM; in the experiment on PC3 cells it was 201 to 10000 nM; in experiment [2] it was 201 to 10000 nM.

Take `CC(O)c1ccc(-c2ccc3c(N4CCOCC4)nc(-c4ccc(NC(=O)Nc5ccc(C(=O)N(C)C)cc5)cc4)nc3c2)o1` (stereo not shown) [Example 206, 4-(3-(4-(7-(5-(1-hydroxyethyl)furan-2-yl)-4-morpholino-quinazolin-2-yl)phenyl)ureido)-N,N-dimethyl-benzamide]: the IC50 on mTOR kinase was below 50 nM; in experiment [1] it was below 50 nM; in the experiment with PC3 cells, 201 to 10000 nM; in experiment [2], 201 to 10000 nM.

For `CN1CCN(C(=O)c2ccc(NC(=O)Nc3ccc(-c4nc(N5CCOCC5)c5cc(F)c(-c6cccnc6)cc5n4)cc3F)cc2)CC1` [Example 211, 1-(2-fluoro-4-(6-fluoro-4-morpholino-7-(pyridin-3-yl)quinazolin-2-yl)phenyl)-3-(4-(4-methylpiperazine-1-carbonyl)phenyl)urea], the IC50 was below 50 nM on mTOR kinase, below 50 nM in experiment [1], below 100 nM in the experiment with PC3 cells and 201 to 10000 nM in experiment [2].

Take `CC(O)c1ccc(-c2ccc3c(N4CCOCC4)nc(-c4ccc(NC(=O)Nc5ccc(C(=O)N(C)C)cc5)c(F)c4)nc3c2)o1` (stereo not shown) [Example 214, 4-(3-(2-fluoro-4-(7-(5-(1-hydroxyethyl)furan-2-yl)-4-morpholino-quinazolin-2-yl)phenyl)ureido)-N,N-dimethyl-benzamide]: the IC50 at mTOR kinase was below 50 nM; in experiment [1], below 50 nM; with PC3 cells it was below 100 nM; in experiment [2] it was 201 to 10000 nM.

As for `CNC(=O)c1ccc(NC(=O)Nc2ccc(-c3nc(N4CCOCC4)c4ccc(-c5cncnc5)cc4n3)cc2F)cc1` [Example 215, 4-(3-(2-fluoro-4-(4-morpholino-7-(pyrimidin-5-yl)quinazolin-2-yl)phenyl)ureido)-N-methyl-benzamide], the IC50 at mTOR kinase fell in the range of 50 to 200 nM; in experiment [1], 50 to 200 nM; with PC3 cells, 201 to 10000 nM; in experiment [2], 201 to 10000 nM.

Take `CC(O)c1ccc(-c2cnc3c(N4CCOCC4)nc(-c4ccc(NC(=O)Nc5ccc(C(=O)N(C)C)cc5)cc4)nc3c2)o1` (stereo not shown) [Example 216, 4-(3-(4-(7-(5-(1-hydroxyethyl)furan-2-yl)-4-morpholino-pyrido[3,2-d]pyrimidin-2-yl)phenyl)ureido)-N,N-dimethyl-benzamide]: the IC50 is below 50 nM on mTOR kinase, below 50 nM in experiment [1], 201 to 10000 nM with PC3 cells and 201 to 10000 nM in experiment [2].

The values are drawn from US9115092B2, “Substituted quinazoline and pyrido-pyrimidine derivatives” (Asana Biosciences, LLC, priority 2010, dated 2015).
